In ChEMBL document CHEMBL5120978, “Application of Compositions Comprising a KRAS G12C Inhibitor and an EGFR Inhibitor for the Potential Treatment of Cancer” (2022):

Columns and labels:
Format in all cases: functional
[1] = Anti-tumor activity against human PDX CR6256 cells xenografted with nude BALB/c mouse assessed as inhibition of tumor growth inhibition at 30 mg/kg, po QD for 21 days co-treated with 20 mg/kg, ip QD Cetuximab relative to control; conditions: PDX CR6256, 504 h, time 21 day, read-out: TGI
[2] = system: NCI-H2122; assay: Anti-tumor activity against human NCI-H2122 cells xenografted with nude mouse assessed as inhibition of tumor growth inhibition at 50 mg/kg, po QD for 21 days relative to control; conditions: NCI-H2122, 504 h, time 21 day, read-out: TGI
[3] = system: NCI-H2122; assay: Anti-tumor activity against human NCI-H2122 cells xenografted with nude mouse assessed as inhibition of tumor growth inhibition at 50 mg/kg, po QD for 21 days co-treated with 50 mg/kg, po QD Erlotinib relative to control; conditions: NCI-H2122, 504 h, time 21 day, read-out: TGI

Row | Compound | inhibition in vivo at 30 mg/kg [1] | inhibition in vivo at 50 mg/kg [2] | inhibition in vivo at 50 mg/kg [3]
1 | C=CC(=O)N1CCN(c2nc(OC[C@@H]3CCCN3C)nc3c(F)c(-c4nc(N)cc(C)c4C(F)(F)F)c(Cl)cc23)[C@@H](C)C1 [DIVARASIB] | 133% | 93% | 117%
2 | C#Cc1cccc(Nc2ncnc3cc(OCCOC)c(OCCOC)cc23)c1 [ERLOTINIB] | – | 48% | –
